Measurements as given in patent US11448643B2, “Methods to specifically profile protease activity at lymph nodes” (Massachusetts Institute of Technology, priority 2016, dated 2022).
Square brackets hold non-standard residues; d marks the D form. Ends that are not written are not given here. Pip = O=C(O)[C@@H]1CCCCN1

Tests used:
[1] = system: metalloproteases in the LN; settings: mice vaccinated with amph-EGP plus lipo-CpG and boosted; urine collected 3 hours after injection; ELISA; FIG. 6
Experimental: Mice were injected subcutaneously and urine for analysis was collected 3 h post-administration.
Mice were later boosted to engage both innate and adaptive immunity. Subsequently, mice were administered a LN-targeting pro-diagnostic reagent comprising a LN-specific enzyme susceptible domain (e.g., protease substrate). Cleavage of the pro-diagnostic reagent by metalloproteases in the LN results in production of signature molecules (ligand encoded tags) that are released into the urine of the subject (e.g., mouse). Urine was collected from the mice 3 hours after injection. Reporter signal was quantified by ELISA.

[2] = system: homogenized lymph nodes from vaccinated mice; assay: Ex vivo peptide screen: cleavage of fluorogenic protease substrates by homogenized lymph nodes from vaccinated vs control mice; format: biochemical; settings: 58 fluorogenic substrates; 384 well plates; fluorescence over several hours; FIG. 7
Experimental: Substrate cleavage of 58 peptides was measured. Signal reported is the fold difference in cleavage between vaccinated mice and PBS-injected mice.
Mice were vaccinated in the same manner as described above. Lymph nodes from vaccinated or non-vaccinated mice were harvested. The harvested lymph nodes were homogenized and added to the 58 fluorogenic protease substrates (SEQ ID NOs: 2-59) in 384 well plates. Fluorescent signal was monitored over the period of several hours for each substrate in the well plates. Fluorescence of reporter molecules in lymph nodes of vaccinated mice was compared to non-vaccinated mice (injected with PBS) and reported as the fold difference in cleavage of each substrate between vaccinated and control mice. […] The substrate used urinary monitoring experiment described above is referred to as Q7 (PLGVRGK; SEQ ID NO: 76).

Question: “Albumin-GPLGVRGKGK(Biotin)eGvndneeGffsarK(FAM) [Albumin-B7]” was tested. Which “urinary reporter signal in vaccinated mice compared to PBS-injected mice” value [1] did it give?
Answer: significantly increased

Question: How did the “rank of substrate cleavage (fold difference vaccinated vs control mice)” value [2] turn out when “f(Pip)KSGGG ([dF][Pip]KSGGG; also: fluorogenic labels) [Q10, fluorogenic protease substrate, f is D-Phe, Pip is pipecolic acid]” was run?
Answer: two highest cleaved substrates

Question: “GGVPRG (also: fluorogenic labels) [PQ12]” was tested. Which “rank of substrate cleavage (fold difference vaccinated vs control mice)” value [2] did it give?
Answer: two highest cleaved substrates
